Data on six molecules can be found in article PMC6748986, “Potent modulation of the CepR quorum sensing receptor and virulence in a Burkholderia cepacia complex member using non-native lactone ligands” (Scientific Reports, 2019).

Experiment [1] relates to LasR, RhlR, and QscR. Briefly: Comparison of activities in CepR vs. the three LuxR-type receptors in P. aeruginosa. The note with it: preliminary analyses; comparison with earlier data ref 22, 24, 59. An excerpt: To close, the compounds identified herein constitute new chemical tools to study QS in Bcc species in a variety of contexts. Given the strong conservation of CepR between Bcc members, we hypothesize our compounds will maintain their activity profiles across Bcc member species and we can begin to use them to assess the role of CepI/CepR QS on a broader scale. […] A next step moving forward will be to gauge the selectivity of the ligands identified herein for CepR over other LuxR-type receptors. […] Such compounds could allow for the selective targeting of QS in one organism in a mixed culture over time and allow for insights into the potential for interspecies interactions via QS and their effects on host health outcomes. Ongoing studies are focused in this arena, along with further delineating the mechanisms by which our CepR ligands agonize and antagonize CepR, and will be reported in due course.

For experiment [2], the target named is T1, CepR (Burkholderia multivorans, UniProt Q93PF7).
T1 sequence (Q93PF7 1-239): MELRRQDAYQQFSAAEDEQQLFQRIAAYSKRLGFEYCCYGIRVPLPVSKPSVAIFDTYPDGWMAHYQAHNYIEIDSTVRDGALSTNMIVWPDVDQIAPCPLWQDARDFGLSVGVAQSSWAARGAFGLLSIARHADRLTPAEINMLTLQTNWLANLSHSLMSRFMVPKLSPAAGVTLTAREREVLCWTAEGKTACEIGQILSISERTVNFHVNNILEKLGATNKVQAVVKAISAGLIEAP
Briefly: CepR antagonism in B. multivorans cepI::lacZ reporter (Bm-reporter), competition against C8-AHL. It is filed as cell-based. In short, it runs like this: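 B. multivorans cepI::lacZ cells (1:10 dilution of overnight LB culture) grown 4 h at 37 °C with compound, then β-galactosidase read with CPRG on permeabilized cells at 25 °C for ~10 min. Agonism compared against 100 μM C8-AHL; antagonism run in the presence of 5 nM C8-AHL.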

In experiment [3] the test system is B. multivorans ATCC17616. Briefly: Swarming motility assay (0.5% agar). It is filed as cell-based. The note with it: 50 μM C8-AHL. From the text: We were interested to assess the effects of our lead CepR modulators on a phenotype under the control of QS in B. multivorans. However, very little work has been reported to directly link CepR activity in B. multivorans to any QS-controlled phenotype. […] Therefore, we chose to study the effects of compound treatment on both the swarming and swimming motility of B. multivorans (B. multivorans ATCC17616; see Methods).
We then tested the ability of our non-native compounds to modulate swimming motility in B. multivorans.
Figure S4. Motility assays (A ) on 0.3% agar (i.e., to measure swimming) with th e B. multivorans parental and cepI::lacZ organisms, using +/- 50 μM C8-AHL and (B) on 0. 5 % ag a r (i.e . , t o measure swarming ) with the B. multivorans parental organism, using +/- 50 μ M C8-AHL. Se e main text for assay methods.
(1 picture or pasted object on this page, not shown here)

[4] abbreviates: Bm-reporter, against 5 nM C8-AHL.

Read-outs that look alike come from different tables or passages of the source.

Regarding `O=C(CCc1ccc([N+](=O)[O-])cc1)N[C@H]1CCOC1=O` [Compound E37], in experiment [1], the “Selectivity for CepR over LasR, RhlR, QscR” value (“Selectivity for CepR” below) is “selective for CepR”.

Regarding `CCCCCCCS(=O)(=O)N[C@H]1CCOC1=O` [Compound A12], the concentration for half-maximal inhibition (IC50) (as a rule, the midpoint of a concentration-inhibition curve) in experiment [2] worked out at 1.7 µM. Moreover, in experiment [2] (setting [4]), the “Maximal Inhibition (%)” value is given as 82%. The “Selectivity for CepR” value in experiment [1] is “selective for CepR”.

`O=C(Cc1cccc(Br)c1)N[C@H]1CCOC1=O` [Compound C8]: in experiment [2] (Bm-reporter), the “CepR antagonism in words” value is recorded as “bring reporter activity down to nearly zero”. Besides, the “Maximal Inhibition (%)” value in experiment [2] (setting [4]) is listed as 94%. Also, the 50% inhibitory concentration (IC50) in experiment [2] (Bm-reporter, against 5 nM C8-AHL, read-out: IC50) is 2.6 µM.

On to `O=C(Cc1cccc(C(F)(F)F)c1)N[C@H]1CCOC1=O` [Compound E3], for which the IC50 in experiment [2] worked out at 1.9 µM. The “CepR antagonism in words” value in experiment [2] (Bm-reporter) is reported as “bring reporter activity down to nearly zero”. Further, the “Maximal Inhibition (%)” value in experiment [2] (setting [4]) is listed as 100%. Moreover, in experiment [1], the “Selectivity for CepR” value was “selective for CepR”.

For the molecule `CCCCCCCC(=O)N[C@H]1CCOC1=O` [Compound C8-AHL, N-octanoyl L-homoserine lactone, reference compound], the “Swarming motility upon addition of compound” value in experiment [3] is reported as “not increased”.

On to `O=C(CC1CCCC1)N[C@H]1CCOC1=O` [Compound B12], for which, in experiment [2], the half-inhibitory concentration (IC50) is 2.1 µM. Besides, the “Maximal Inhibition (%)” value in experiment [2] (setting [4]) was determined as 83%.
